Reference: US12685733B2, “Indole molecules and use thereof in the inhibition of DNA polymerases” (BioVentures, LLC, priority 2019, dated 2026)
Like-named read-outs stand apart in the source and are kept apart here.

Key:
hpol η [1] = target: T1, hpol η (Homo sapiens, UniProt Q9Y253); experiment: Fluorescence-based DNA polymerase activity assay; format: biochemical; settings: for IC50: 95% confidence interval in parentheses, read-out: IC50 for inhibition of hpol η
T1 construct: hpol η (residues 1-437); made in house
T1 sequence (Q9Y253 1-437): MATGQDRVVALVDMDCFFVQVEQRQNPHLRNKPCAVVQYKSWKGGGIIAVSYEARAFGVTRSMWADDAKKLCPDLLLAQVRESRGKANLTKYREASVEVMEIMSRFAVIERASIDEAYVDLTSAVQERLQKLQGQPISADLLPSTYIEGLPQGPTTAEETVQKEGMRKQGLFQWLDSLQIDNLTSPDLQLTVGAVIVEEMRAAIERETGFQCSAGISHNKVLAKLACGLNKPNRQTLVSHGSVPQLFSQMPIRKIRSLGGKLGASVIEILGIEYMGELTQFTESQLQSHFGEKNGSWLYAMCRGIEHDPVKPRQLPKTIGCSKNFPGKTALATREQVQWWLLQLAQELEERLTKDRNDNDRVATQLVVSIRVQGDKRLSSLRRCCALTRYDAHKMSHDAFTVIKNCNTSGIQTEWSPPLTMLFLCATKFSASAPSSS
Description: The impact of IAG-10 on the affinity of hpol κ for DNA was an important insight and one that had not been observed previously with MK-886. It was reasoned that decreasing the concentration of either enzyme or DNA, might affect the IC50 value by shifting the equilibrium away from the formation of binary hpol c: DNA complex and toward the enzyme-inhibitor complex. To investigate this idea, the concentration of hpol and p/t-DNA was varied in the reaction mixture and measured the IC50 value for IAG-10. Decreasing the enzyme and DNA in solution led to a dramatic decrease in the IC50 for IAG-10 against hpol κ (FIG. 4A). […] Then, similar experiments were performed with hpol η by varying the concentration of enzyme and DNA in the reaction mixture an determining the IC50 value for IAG-10-mediated inhibition.

hpol η [2] = target: T1, hpol η; experiment: Gel-based primer extension assay; format: biochemical; settings: 10 μM; 2 nM hpol η
hpol ι = target: T2, hpol ι (Homo sapiens, UniProt Q9UNA4); experiment: Gel-based primer extension assay; format: biochemical; settings: 10 μM; 10 nM hpol ι
T2 construct: hpol ι (residues 1-446); made in house
T2 sequence (Q9UNA4 1-446): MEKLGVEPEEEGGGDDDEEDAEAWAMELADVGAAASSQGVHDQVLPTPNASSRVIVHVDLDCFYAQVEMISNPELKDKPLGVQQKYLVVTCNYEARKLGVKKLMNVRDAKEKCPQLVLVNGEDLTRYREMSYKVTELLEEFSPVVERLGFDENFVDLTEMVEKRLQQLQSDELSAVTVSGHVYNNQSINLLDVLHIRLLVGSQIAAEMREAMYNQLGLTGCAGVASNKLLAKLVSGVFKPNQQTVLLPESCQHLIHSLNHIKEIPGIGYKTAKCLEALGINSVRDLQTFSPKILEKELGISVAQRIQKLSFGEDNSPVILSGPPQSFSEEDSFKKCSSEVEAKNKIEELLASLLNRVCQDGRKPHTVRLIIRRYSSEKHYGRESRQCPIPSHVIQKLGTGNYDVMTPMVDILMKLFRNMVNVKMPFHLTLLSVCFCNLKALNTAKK

hpol β = target: T3, hpol β (Homo sapiens, UniProt P06746); experiment: Fluorescence-based polymerase assay, other pol families; format: biochemical; settings: 10 μM; 1 nM hpol β (X-family)
T3 construct: gift of Dr. Samuel Wilson (NIEHS)

[3] = tested on: hpol κ-deficient HAP-1 cells; experiment: Clonogenic survival assay; format: cell-based, human
Experimental: (§1) HAP-1 and hpol κ^KO cells were purchased from Horizons Discovery Group LLC (Cambridge, UK). The company generated the Hap1 cells using CRISPR-Cas9 technology and the elimination of kappa expression was confirmed by Sanger sequence genome editing. We further confirmed the elimination of hpol κ protein expression by Western blotting (data not shown). Hap1 cells were cultured in Iscove's modified Dulbecco's medium (IMDM; Invitrogen, CA, USA) supplemented with 10% (v/v) fetal bovine serum (FBS; Atlas Biologicals, CO, USA) and 1% (v/v) antibiotic/antimycotic solution (Sigma-Aldrich, MO, USA).T98G cells were purchased from ATCC (American Type Culture Collection, VA, USA). T98G cells were cultured in MEM (Minimum Essential Medium) (Invitrogen, CA, USA) supplemented with 10% (v/v) FBS (Fetal Bovine Serum, Atlas Biologicals, CO, USA) and antibiotic/antimycotic solution (1%, v/v) (Sigma-Aldrich, MO, USA). NT2 cells were kindly provided by Dr. Michael Borrelli (University of Arkansas for Medical Sciences, AR, USA). NT2 cells were cultured in DMEM/F12 (Dulbecco's Modified Eagle Medium) supplemented with 10% (v/v) FCS (Fetal Calf Serum) and antibiotic/antimycotic solution (1%) (Sigma-Aldrich, MO, USA).
(§2) To measure the clonogenic ability, cells were plated (500 cells per well) in 6-well dishes. In the case of HAP-1 cells, cells were treated the following day after plating, with temozolomide (TMZ) (0, 1, 5, 50, 125 and 250 μM) alone or in combination with UAMS-48 (0.1 and 0.5 μM) for 1 hour. In the case of T98G and NT2 cells, treatment was done on the following day of plating, with increasing concentrations of TMZ alone or in combination with UAMS-48 (50 nM) for 3 hrs. T98G and NT2 cells were treated with increasing concentrations of UAMS-48 for 3 hrs. After treatment, cells were cultured in fresh IMDM supplemented with 10% FBS for 10 days. The colonies were gently washed with 1×PBS, fixed with 3.7% (v/v) formaldehyde for 20 mins at RT and stained with crystal violet solution (Sigma-Aldrich, MO, USA) for 30 mins at RT.
(§3) The fixed crystal-violet stained colonies in each 6-well plate were examined under an EVOS XL Core imaging system (Thermo Fisher Scientific) under bright-field, and the colonies were inspected manually. […] Color images of each 6-well plate were captured and opened for processing using the Fiji version of the freely available software ImageJ. Setting the appropriate threshold for counting colonies for each cell type, corresponding to the respective radii calculated previously, the colonies were counted using the Colony Area plugin of ImageJ. Manual counting was performed on a few wells picked randomly, and the colony count so obtained was tallied with the number obtained using ImageJ, to ensure they matched reasonably. All experiments were performed in triplicate, and the colony number for each well was expressed as the mean (±standard deviation). The results were plotted to generate a dose response curve for TMZ treatment using the software Graphpad Prism, where the mean number of colonies was plotted along the Y-axis, and the TMZ concentration along the X-axis. Bar charts comparing the mean number of colonies as a function of the various conditions were also plotted for both cell types. Combination index values were calculated using the Chou-Talalay method (Chou 2010).

[4] = tested on: hpol κ-proficient HAP-1 cells; experiment: Clonogenic survival assay; format: cell-based, human
Experimental: as §1, §2, §3

`Cl.[H]/N=C(\N)NN=Cc1cn(C(=O)c2cccc3ccccc23)c2ccc(Cl)cc12` [IAG-10, (E)-2-((1-(1-naphthoyl)-5-chloro-1H-indol-3-y1)methylene)hydrazine-1-carboximidamide hydrochloride] was tested, and the IC50 (hpol η [1]; 2 nM DNA) was 22.5 µM, the IC50 (hpol η [1]; 50 nM DNA) was 14.3 µM and the “Michaelis constant, hpol η” value (hpol η [1]; steady-state kinetics with increasing inhibitor concentration) was “linear increase”. For the same molecule, the “turnover number (kcat), hpol η” value (hpol η [1]; steady-state kinetics with varying inhibitor concentration) was “no measurable change”, the “polymerase activity relative to DMSO control” value (hpol η [2]) was “only hpol κ was inhibited” and the “polymerase activity relative to DMSO control” value (hpol ι) was “only hpol κ was inhibited”. The “polymerase activity relative to DMSO control” value (hpol β) was “only hpol κ activity was inhibited”, the “colony formation, compound alone” value ([3]; 0.5 μM IAG-10) was “does not impair colony formation” and the “colony forming ability, co-treatment over TMZ alone” value ([3]; TMZ + 0.5 μM IAG-10) was “did not show any significant reduction in colony forming ability”. For the same molecule, the “colony formation, compound alone” value ([4]; 0.5 μM IAG-10) was “does not impair colony formation” and the “colonies formed relative to untreated cells” value ([4]; 250 μM TMZ + 0.5 μM IAG-10 co-treatment, 1 hour) was ~ 40%.
